Drawing on patent publication US12534474B2, “Dihydrofuropyridine derivatives as rho-kinase inhibitors” (CHIESI FARMACEUTICI S.P.A., priority 2020, dated 2026), this text covers Ki for 17 molecules.

For orientation: Ki means a measure of affinity in units of concentration, obtained from inhibition or displacement.

Holding throughout (assay type): biochemical
The target of assay [1] is T1, ROCK2 (Homo sapiens, UniProt O75116). The assay is described as follows: In vitro Rho kinase inhibitory activity assay, ADP-Glo, Method B (ATP 200 μM). The conditions noted are these: read-out: Method B ROCK 2 (Ki). On the procedure: (§1) In Vitro Inhibitory Activity Assay Description (Method B)
(§2) The effectiveness of compounds of the present invention to inhibit Rho kinase activity can be determined in a 10 μL assay containing 40 mM Tris pH7.5, 20 mM MgCl2 0.1 mg/mL BSA, 50 μM DTT and 2.5 μM peptide substrate (Myelin Basic Protein) using an ADP-Glo kit (Promega). Compounds were dissolved in DMSO such that the final concentration of DMSO was 1% in the assay. All reactions/incubations are performed at 25° C. Compound (2 ul) and either Rho kinase 1 or 2 (4 μL) were mixed and incubated for 30 min. Reactions were initiated by addition of ATP (4 μL) such that the final concentration of ATP in the assay was 200 μM. After a 1 hour incubation 10 μL of ADP-Glo Reagent was added and after a further 45 minute incubation 20 ul of Kinase Detection Buffer was added and the mixture incubated for a further 30 minutes. The luminescent signal was measured on a luminometer. […] Compounds were tested in dose-response format and the inhibition of kinase activity was calculated at each concentration of compound. To determine the IC50 (concentration of compound required to inhibit 50% of the enzyme activity) data were fit to a plot of % inhibition vs Log 10 compound concentration using a sigmoidal fit with a variable slope and fixing the maximum to 100% and the minimum to 0%. To determine the Ki values the Cheng-Prusoff equation was utilized (Ki=IC50/(1+[S]/Km).

Assay [2] concerns the target T2, ROCK1 (Homo sapiens, UniProt Q13464). The assay is described as above. The note with it: read-out: Method B ROCK 1 (Ki). On the procedure: as §1, §2
Assay [3] addresses T1, ROCK2. The assay is described as follows: In vitro Rho kinase inhibitory activity assay, ADP-Glo, Method A (ATP 10 μM). The note with it: read-out: Method A ROCK 2 (Ki). As for the experimental part: (§3) In Vitro Inhibitory Activity Assay Description (Method A)
as §2, with “(2 μL)” for “(2 ul)”, “was 10” for “was 200”, “20 μL” for “20 ul”, “vs Log10” for “vs Log 10”
(ADP-Glo turns the ADP formed in a reaction into a luminescent signal.)

The target in assay [4] is T2, ROCK1. Described as above. The conditions noted are these: read-out: Method A ROCK 1 (Ki). On the procedure: as §3
as §2, with “(2 μL)” for “(2 ul)”, “was 10” for “was 200”, “20 μL” for “20 ul”, “vs Log10” for “vs Log 10”

A value given as a limit tells only on which side of the number the result lay.

T2 sequence (Q13464 whole entry): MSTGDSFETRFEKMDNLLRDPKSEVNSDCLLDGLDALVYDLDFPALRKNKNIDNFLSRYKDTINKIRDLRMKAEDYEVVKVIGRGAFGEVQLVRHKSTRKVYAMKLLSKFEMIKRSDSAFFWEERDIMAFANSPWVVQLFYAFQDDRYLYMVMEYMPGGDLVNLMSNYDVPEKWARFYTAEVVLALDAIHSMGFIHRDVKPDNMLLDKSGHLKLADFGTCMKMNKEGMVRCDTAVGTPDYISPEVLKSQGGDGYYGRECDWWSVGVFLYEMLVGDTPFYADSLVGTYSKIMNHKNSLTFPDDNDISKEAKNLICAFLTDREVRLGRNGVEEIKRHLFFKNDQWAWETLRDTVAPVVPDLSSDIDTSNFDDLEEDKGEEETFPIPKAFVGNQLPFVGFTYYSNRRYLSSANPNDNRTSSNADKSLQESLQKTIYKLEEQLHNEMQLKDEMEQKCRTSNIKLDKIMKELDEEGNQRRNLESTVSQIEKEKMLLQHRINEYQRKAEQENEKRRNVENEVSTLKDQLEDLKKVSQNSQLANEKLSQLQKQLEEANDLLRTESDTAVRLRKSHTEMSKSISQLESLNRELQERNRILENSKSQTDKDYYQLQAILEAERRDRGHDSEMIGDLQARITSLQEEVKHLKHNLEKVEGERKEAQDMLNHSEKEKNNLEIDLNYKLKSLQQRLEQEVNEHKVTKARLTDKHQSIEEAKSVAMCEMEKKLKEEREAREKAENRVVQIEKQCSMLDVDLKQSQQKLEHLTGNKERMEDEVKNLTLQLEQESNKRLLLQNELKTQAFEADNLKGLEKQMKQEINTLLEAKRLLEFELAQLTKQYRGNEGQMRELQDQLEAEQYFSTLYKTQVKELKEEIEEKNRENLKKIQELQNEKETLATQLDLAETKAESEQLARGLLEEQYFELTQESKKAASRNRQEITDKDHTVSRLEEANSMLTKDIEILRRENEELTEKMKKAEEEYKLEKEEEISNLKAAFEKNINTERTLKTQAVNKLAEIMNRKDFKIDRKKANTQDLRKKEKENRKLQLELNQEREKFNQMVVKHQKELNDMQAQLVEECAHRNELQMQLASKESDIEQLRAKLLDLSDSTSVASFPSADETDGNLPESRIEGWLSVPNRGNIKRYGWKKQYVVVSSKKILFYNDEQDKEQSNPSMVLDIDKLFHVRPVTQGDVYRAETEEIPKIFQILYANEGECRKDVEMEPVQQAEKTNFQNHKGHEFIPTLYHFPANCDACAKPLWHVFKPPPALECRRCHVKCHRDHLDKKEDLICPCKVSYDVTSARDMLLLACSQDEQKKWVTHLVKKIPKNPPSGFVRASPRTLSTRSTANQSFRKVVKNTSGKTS
T1 sequence (O75116 whole entry): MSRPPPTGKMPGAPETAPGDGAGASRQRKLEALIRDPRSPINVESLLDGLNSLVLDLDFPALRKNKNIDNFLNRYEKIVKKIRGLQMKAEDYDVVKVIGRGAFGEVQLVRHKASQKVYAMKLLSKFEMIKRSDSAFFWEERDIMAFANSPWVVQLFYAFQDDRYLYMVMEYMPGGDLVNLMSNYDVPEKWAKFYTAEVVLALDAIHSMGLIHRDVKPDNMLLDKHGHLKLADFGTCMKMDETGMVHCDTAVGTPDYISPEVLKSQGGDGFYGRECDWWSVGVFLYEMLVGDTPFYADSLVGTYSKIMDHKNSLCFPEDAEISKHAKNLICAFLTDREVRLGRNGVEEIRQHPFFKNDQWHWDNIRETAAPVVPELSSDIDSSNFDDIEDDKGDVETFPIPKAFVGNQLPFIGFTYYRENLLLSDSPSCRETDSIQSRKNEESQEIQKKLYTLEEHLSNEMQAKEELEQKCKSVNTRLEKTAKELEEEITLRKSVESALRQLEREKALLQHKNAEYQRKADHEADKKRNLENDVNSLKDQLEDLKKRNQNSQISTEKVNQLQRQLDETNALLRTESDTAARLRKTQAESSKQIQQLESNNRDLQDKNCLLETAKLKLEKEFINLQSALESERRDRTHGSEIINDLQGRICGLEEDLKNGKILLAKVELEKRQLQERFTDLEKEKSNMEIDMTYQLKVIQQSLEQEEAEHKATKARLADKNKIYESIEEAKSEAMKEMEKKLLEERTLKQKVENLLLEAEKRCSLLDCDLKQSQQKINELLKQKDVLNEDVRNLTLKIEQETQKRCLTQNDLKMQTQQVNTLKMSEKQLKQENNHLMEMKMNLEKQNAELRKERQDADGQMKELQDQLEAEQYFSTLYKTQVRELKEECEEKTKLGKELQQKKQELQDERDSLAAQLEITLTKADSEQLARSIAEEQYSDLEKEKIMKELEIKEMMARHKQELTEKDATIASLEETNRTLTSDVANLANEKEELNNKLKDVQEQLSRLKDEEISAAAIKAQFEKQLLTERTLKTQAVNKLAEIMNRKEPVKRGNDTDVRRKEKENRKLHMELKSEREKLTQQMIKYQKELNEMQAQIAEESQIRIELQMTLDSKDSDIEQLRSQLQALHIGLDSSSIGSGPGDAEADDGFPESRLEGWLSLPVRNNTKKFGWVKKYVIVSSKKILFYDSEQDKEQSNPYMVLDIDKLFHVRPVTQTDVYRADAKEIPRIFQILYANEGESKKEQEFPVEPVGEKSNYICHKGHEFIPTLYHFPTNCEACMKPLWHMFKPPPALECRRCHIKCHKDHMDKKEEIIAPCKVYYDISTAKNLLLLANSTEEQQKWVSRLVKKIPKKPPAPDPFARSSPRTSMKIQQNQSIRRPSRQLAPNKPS

In the case of `CN1CCn2nc(NC(=O)c3cccc(CNc4ncc(-c5ccncc5)c5c4CCO5)c3)cc2C1` [Example 21], the Ki on ROCK2 [1], on ROCK1 [2], at ROCK2 [3] and at ROCK1 [4] was at most 3 nM each time.

As for `CN1CCc2nc(NC(=O)c3ccnc(CNc4ncc(-c5ccncc5)c5c4CCO5)c3)sc2C1` [Example 51, N-(5-methyl-4,5,6,7-tetrahydrothiazolo[5,4-c]pyridin-2-yl)-2-(((7-(pyridin-4-yl)-2,3-dihydrofuro[3,2-c]pyridin-4-yl)amino)methyl)isonicotinamide], the Ki is at most 3 nM at ROCK2 [3] and 3 to 30 nM on ROCK1 [4].

In the case of `Cc1cnccc1-c1cnc(NCc2cccc(C(=O)Nc3nc4c(s3)CN(C)CC4)c2)c2c1OCC2` [Example 48, N-(5-methyl-4,5,6,7-tetrahydrothiazolo[5,4-c]pyridin-2-yl)-3-(((7-(3-methylpyridin-4-yl)-2,3-dihydrofuro[3,2-c]pyridin-4-yl)amino)methyl)benzamide], the Ki on ROCK2 [3] and at ROCK1 [4] was at most 3 nM each time.

Turning to `CN1CCc2nc(NC(=O)c3cccc(CNc4ncc(-c5ccnc(F)c5)c5c4CCO5)c3)sc2C1` [Example 50, 3-(((7-(2-fluoropyridin-4-yl)-2,3-dihydrofuro[3,2-c]pyridin-4-yl)amino)methyl)-N-(5-methyl-4,5,6,7-tetrahydrothiazolo[5,4-c]pyridin-2-yl)benzamide], the Ki on ROCK2 [3] and on ROCK1 [4] was at most 3 nM each time.

In the case of `O=C(Nc1ncc(CN2CCCC2)s1)c1cccc(CNc2ncc(-c3ccncc3)c3c2CCO3)c1` [Example 1, 3-(((7-(Pyridin-4-yl)-2,3-dihydrofuro[3,2-c]pyridin-4-yl)amino)methyl)-N-(5-(pyrrolidin-1-ylmethyl)thiazol-2-yl)benzamide], the inhibition constant (Ki) at ROCK2 [1], at ROCK1 [2], on ROCK2 [3] and on ROCK1 [4] was at most 3 nM throughout.

On to `O=C(N[C@H](CO)c1ccccc1)c1cccc(CNc2ncc(-c3ccncc3)c3c2CCO3)c1` [Example 24, (S)-N-(2-hydroxy-1-phenylethyl)-3-(((7-(pyridin-4-yl)-2,3-dihydrofuro[3,2-c]pyridin-4-yl)amino)methyl)benzamide], for which the Ki on ROCK2 [3] and at ROCK1 [4] was at most 3 nM in each case.

Regarding `CN1CCc2nc(NC(=O)c3cccc(CNc4ncc(-c5ccncc5)c5c4CCO5)c3)sc2C1` [Example 23, N-(5-methyl-4,5,6,7-tetrahydrothiazolo[5,4-c]pyridin-2-yl)-3-(((7-(pyridin-4-yl)-2,3-dihydrofuro[3,2-c]pyridin-4-yl)amino)methyl)benzamide], the Ki on ROCK2 [3] and at ROCK1 [4] was at most 3 nM throughout.

With `Cc1cc(-c2cnc(NCc3cccc(C(=O)Nc4nc5c(s4)CN(C)CC5)c3)c3c2OCC3)ccn1` [Example 47, N-(5-Methyl-4,5,6,7-tetrahydrothiazolo[5,4-c]pyridin-2-yl)-3-(((7-(2-methylpyridin-4-yl)-2,3-dihydrofuro[3,2-c]pyridin-4-yl)amino)methyl)benzamide], the Ki on ROCK2 [3] and on ROCK1 [4] was 3 to 30 nM each time.

For `CN1CCc2nc(NC(=O)c3cccc(CNc4ncc(-c5ccnc(N)c5)c5c4CCO5)c3)sc2C1` [Example 49, 3-(((7-(2-aminopyridin-4-yl)-2,3-dihydrofuro[3,2-c]pyridin-4-yl)amino)methyl)-N-(5-methyl-4,5,6,7-tetrahydrothiazolo[5,4-c]pyridin-2-yl)benzamide], the Ki at ROCK2 [3] and at ROCK1 [4] was at most 3 nM in each case.

For the molecule `CC(=O)Nc1cccc(CNc2ncc(-c3ccncc3)c3c2CC(C)O3)c1` (centres unmarked) [Example 55, N-(3-(((2-methyl-7-(pyridin-4-yl)-2,3-dihydrofuro[3,2-c]pyridin-4-yl)amino)methyl)phenyl)acetamide], the Ki on ROCK2 [3] and at ROCK1 [4] was 3 to 30 nM throughout.

Consider `O=C(Nc1cccc(CNc2ncc(-c3ccncc3)c3c2CCO3)c1)c1ccc2c(c1)CCNC2` [Example 40, N-(3-(((7-(pyridin-4-yl)-2,3-dihydrofuro[3,2-c]pyridin-4-yl)amino)methyl)phenyl)-1,2,3,4-tetrahydroisoquinoline-6-carboxamide], for which the inhibition constant (Ki) at ROCK2 [3] and on ROCK1 [4] was at most 3 nM throughout.

As for `CC1CCN(CCC(=O)Nc2cccc(CNc3ncc(-c4ccncc4)c4c3CCO4)c2)CC1` [Example 32, 3-(4-Methylpiperidin-1-yl)-N-(3-(((7-(pyridin-4-yl)-2,3-dihydrofuro[3,2-c]pyridin-4-yl)amino)methyl)phenyl)propanamide], the Ki at ROCK2 [3] and at ROCK1 [4] was 3 to 30 nM each time.

For `CN(C)Cc1nc(C(=O)Nc2cccc(CNc3ncc(-c4ccncc4)c4c3CCO4)c2)cs1` [Example 53, 2-((dimethylamino)methyl)-N-(3-(((7-(pyridin-4-yl)-2,3-dihydrofuro[3,2-c]pyridin-4-yl)amino)methyl)phenyl)thiazole-4-carboxamide], the Ki on ROCK2 [3] and on ROCK1 [4] was 3 to 30 nM throughout.

`CN(C)Cc1cccc(NC(=O)c2cccc(CNc3ncc(-c4ccncc4)c4c3CCO4)c2)c1` [Example 26, N-(3-((dimethylamino)methyl)phenyl)-3-(((7-(pyridin-4-yl)-2,3-dihydrofuro[3,2-c]pyridin-4-yl)amino)methyl)benzamide]: the inhibitory constant (Ki) at ROCK2 [3] and on ROCK1 [4] was at most 3 nM each time.

On to `CN1CCc2nc(NC(=O)c3cccc(CNc4ncc(-c5ccncc5)c5c4CCO5)n3)sc2C1` [Example 52, N-(5-methyl-4,5,6,7-tetrahydrothiazolo[5,4-c]pyridin-2-yl)-6-(((7-(pyridin-4-yl)-2,3-dihydrofuro[3,2-c]pyridin-4-yl)amino)methyl)picolinamide], for which the Ki at ROCK2 [3] was at most 3 nM; on ROCK1 [4] it was 3 to 30 nM.

For the molecule `O=C(NCCc1ccncc1)c1cccc(CNc2ncc(-c3ccncc3)c3c2CCO3)c1` [Example 25, 3-(((7-(Pyridin-4-yl)-2,3-dihydrofuro[3,2-c]pyridin-4-yl)amino)methyl)-N-(2-(pyridin-4-yl)ethyl)benzamide], the Ki on ROCK2 [3] and at ROCK1 [4] was at most 3 nM in each case.

On to `O=C(Nc1cccc(CNc2ncc(-c3ccncc3)c3c2CCO3)c1)c1cccc(CN2CCOCC2)c1` [Example 33, 3-(morpholinomethyl)-N-(3-(((7-(pyridin-4-yl)-2,3-dihydrofuro[3,2-c]pyridin-4-yl)amino)methyl)phenyl)benzamide], for which the Ki on ROCK2 [3] and at ROCK1 [4] was 3 to 30 nM each time.
